Measurements reported in patent publication US20200384003A1, “TRITERPENOID-CONTAINING PHARMACEUTICAL COMPOSITION AND USE THEREOF” (SHANGHAI LANMU CHEMICALS CO., LTD., priority 2017, published 2020).
Positions count from the first letter of the chain named.

Tests used:
[1] = Pharmacokinetic study, drug in aqueous humor after eye glass cavity injection (Example 5); format: in vivo; settings: SD rats, 5 μl injected into each glass cavity, detected 10 days after the surgery
Description: SD rats (about 10 weeks old, male or female) were anesthetized by intraperitoneal injection of pentobarbital sodium and pupil was dilated, then eye glass cavity injection surgery was performed. All animals were injected with the same kind of drugs in both eyes. The amount of drug injected into each glass cavity was 5 μl, and the number of test animals per drug formulation (Example 1, Example 2 and Comparative Example 1) was four, and the drug metabolism in the aqueous humor was detected 10 days after the surgery.

[2] = system: traumatic cataract; assay: Therapeutic effect of eye ointment on traumatic cataract (Example 10); format: in vivo, SD rats; settings: pictures before and after administration (FIG. 22-24, Table 10)
[3] = system: diabetic metabolite cataract; assay: Therapeutic effect on diabetic metabolite cataract, streptozotocin model (Example 11); format: in vivo, SD rats; settings: right eye of diabetic rat, pictures before and after 2 months of treatment (FIG. 25-29)
[4] = Heat stability at 80° C. versus 4° C., HPLC and appearance (Example 18); format: physicochemical; settings: for content after heat storage / initial experiment purity: HPLC; for initial experiment purity: stored at 4° C.
Description: The heatl stabilities of inotodiol and trametenolic acid were tested, and lanosterol was used as a reference at the same time.

[5] = target: T1, mutated lens protein (αB-crystallin R120G) (Homo sapiens, UniProt P02511, R120G); assay: Intracellular mutated lens protein aggregation inhibition experiment in transfected HeLa cells (Example 21); format: cell-based; settings: 10 μM, treated 3.5 hours, then 6.5 h normal medium, fewer + = better
T1 construct: expressed in transfected cells; host or cells: HeLa
T1 sequence (P02511 1-175 R120G): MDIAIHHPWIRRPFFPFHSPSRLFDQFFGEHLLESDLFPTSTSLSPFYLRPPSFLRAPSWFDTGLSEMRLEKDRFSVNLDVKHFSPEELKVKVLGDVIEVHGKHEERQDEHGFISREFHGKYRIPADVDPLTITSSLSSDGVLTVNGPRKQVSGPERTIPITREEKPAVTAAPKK
Description: In this example, apart of the specific compounds obtained in Example 19 and Example 20 were selected for intracellular mutated lens protein (αB-crystallin R120G) aggregation inhibition experiment (experimental method was described in Chinese patent CN201580057679). The aggregation inhibition activities of compound I and compound II in the present invention on lens protein mutants were evaluated to screen a compound which was effective in treating related disease such as cataract.
The tumor cell line HeLa was selected as a host cell transfected with the mutant lens protein (αB-crystallin […]) expression plasmid, the medium was DMEM with […], and the culture conditions were 37° C., saturated humidity and 5% carbon dioxide cell incubator. Mycoplasma was negative. The transfection process is that the appropriate number of HeLa cells were inoculated on the pre-coated slides. When fully adherent cells grew to about 75% cell density, the expression vector was transfected with liposome. After 4 hours of transfection, the medium was changed to normal medium. Then the HeLa cells were cultured in the cell incubator for 13 hours to induce the expression of exogenous mutant lens protein. After changing the medium, the replaced new medium contained various compounds of the formula I and formula II of the present invention to be tested (DMSO was used as solvent in all mother fluid), wherein the final concentration of each compound was 10 μM, the negative control was 1.5% DMSO solvent, and the positive control was lanosterol (10 μM). The HeLa cells were treated with the medium containing the test compound, 1.5% DMSO solvent and lanosterol for 3.5 hours, respectively, and the normal fresh medium containing no DMSO, test compound or lanosterol was exchanged and the cells were cultured for another 6.5 h, then Anti-p62 antibody and DAPI were used for routine cellular immunofluorescence detection. The field of vision of three positions per slide was randomly selected, the ratio of cells containing aggregated crystalline proteins (lens protein aggregates) was calculated, and the effect of each test compound on intracellular aggregation of mutant lens proteins was finally determined, the results were shown in Table 19.

[6] = target: T2, wild-type αB lens protein aggregate (WT αB) (Homo sapiens, UniProt P02511); assay: Dissolution of lens protein aggregates, ThT fluorescence (Example 22); format: biochemical; settings: liposome form, final concentration 125 μM, 24 hours, versus blank liposomes (FIG. 33)
T2 sequence (P02511 1-175): T1 sequence (P02511 1-175 R120G) with G120R
Description: The experimental method was as follows: Inotodiol was used as test compound, and its dissolution effect on wild-type αB lens protein aggregate (WT αB) was measured, and lanosterol was used as positive control.
In the present example, the formulations of pharmaceutical composition in the test group and the control group were liposome, wherein the component of the formulation of test group was 40 mg of DPPC, 10 mg of cholesterol and 10 mg of test compound; the component of the formulation of positive control group was 40 mg of DPPC, 10 mg of cholesterol and 10 mg of lanosterol; the component of formulation of the blank control group was 40 mg of DPPC and 10 mg of cholesterol. […]
The analysis of compound concentration in the liposome formulation: The obtained liposome solution was demulsificated with 4 to 5 volumes of methanol solution to afford clear solution. The concentration of compound in the liposome was determined by HPLC method, and the chromatographic conditions are as follows. […] After the comparative analysis, the concentration of corresponding compound in the liposome preparation was determined.
The induction of protein aggregates is as follows. […] After the treatment, ThT fluorescence was used to detect the effect of different compounds on αB lens protein aggregates.

[7] = system: cataract; settings: sustained-release lanosterol drug, dogs; cited from earlier work
[8] = system: cataract lens; settings: direct administration to the eyeball or lens, primates; cited from earlier work
[9] = 80° C. for 1 week, compared with 4° C.
[10] = 80° C. for 2 weeks, compared with 4° C.

CC(C)=CCC[C@@H](C)[C@H]1CC[C@@]2(C)C3=C(CC[C@]12C)[C@@]1(C)CC[C@H](O)C(C)(C)[C@@H]1CC3 [lanosterol, reference compound]
decrease of drug concentration in aqueous humor compared with initial concentration immediately after injection [1]: 82%±14.7%
cortical turbidity area of eyes with traumatic cataract, transparency after administration [2]: could restore transparency of lens with slight turbidity, but no obvious reversal of the disease has been observed in severe cataract
turbid area of lens / course of cataract after administration [3]: increased
appearance after heat storage [4, 9]: one third of the lanosterol turned yellow
purity after heat storage ([4]; 80° C. for 2 weeks): 32%
appearance after heat storage [4, 10]: All lanosterol turned yellow
appearance after heat storage ([4]; 80° C. for 1 day): the powder became hard and formed into a large piece
content after heat storage ([4]; 80° C. for 1 day): 73%
content after heat storage ([4]; 80° C. for 2 day): 48%
content after heat storage ([4]; 80° C. for 3 day): 44%
initial experiment purity [4]: 96%
Inhibitory effect (percentage of cells containing aggregated proteins) [5]: +++ (>60% of the cells in the field of vision contain protein aggregates)
ThT fluorescence signal of αB lens protein aggregates [6]: increased the ThT fluorescence signal
cataract treatment effect [7]: has a cataract treatment effect on dogs only when combined with high-frequency intravitreal injection
transparency of cataract lens [8]: does not restore or improve the transparency of cataract lens in primates

CC(C)=CCC(O)[C@@H](C)[C@H]1CC[C@@]2(C)C3=C(CC[C@]12C)[C@@]1(C)CC[C@H](O)C(C)(C)C1CC3 (stereo partly shown) [Inotodiol, inotodiol]
decrease of drug concentration in aqueous humor compared with initial concentration immediately after injection [1]: 11%±2.3%
appearance after heat storage [4, 9]: did not change
appearance after heat storage [4, 10]: began to turn yellow
content after heat storage ([4]; 80° C. for 1 day): 88%
content after heat storage ([4]; 80° C. for 2 day): 68%
content after heat storage ([4]; 80° C. for 3 day): 67%
initial experiment purity [4]: 94%
Inhibitory effect (percentage of cells containing aggregated proteins) [5]: + (<30% of the cells in the field of vision contained protein aggregates)
ThT fluorescence signal of αB lens protein aggregates [6]: significantly reduce the ThT fluorescence signal

CC(C)=CCC[C@@H](C(=O)O)[C@H]1CC[C@@]2(C)C3=C(CC[C@]12C)[C@@]1(C)CC[C@H](O)C(C)(C)C1CC3 (stereo partly shown) [Trametenolic acid, trametenolic acid]
decrease of drug concentration in aqueous humor compared with initial concentration immediately after injection [1]: 8%±1.5%
turbid area of lens / course of cataract after administration [3]: reduced in a large extent
appearance after heat storage [4, 9]: did not change
purity after heat storage ([4]; 80° C. for 2 weeks): above 93%
appearance after heat storage [4, 10]: no significant change in appearance and purity
content after heat storage ([4]; 80° C. for 1 day): 97%
content after heat storage ([4]; 80° C. for 2 day): 96%
content after heat storage ([4]; 80° C. for 3 day): 96%
initial experiment purity [4]: 98%
Inhibitory effect (percentage of cells containing aggregated proteins) [5]: + (<30% of the cells in the field of vision contained protein aggregates)
